The text below walks through data of a melting point compilation (Tetko et al.; mined from patent text by program, amines drawn as free bases though some values may be those of a salt).

Bounds are passed on as bounds.

In turn, `COC(=O)c1cc(Cl)cc2ccoc12` showed a melting point of 144 to 145 °C.

The molecule `COc1cc(COC(=O)CCc2nc(-c3ccc(Cl)cc3)co2)cc(OC)c1OC` displayed a melting point of 86 to 87 °C.

With `O=C(CCCN1CCN2c3ccccc3NC(=O)C2C1)c1ccc(F)cc1` (stereo not drawn), the melting point was in the range of 145 to 150 °C.

`CCCc1cc(C(=O)CCCC(=O)O)ccc1OC` came in with a melting point of 105 to 106 °C.

`O=Cc1cccc2c(Br)c3ccccc3cc12` gave a melting point of 134 to 136 °C.

With `CCn1nc(C(C)C)c2c1C(=O)NCC(c1ccccc1)=N2`, the melting point came to 160 °C.

`O[C@H]1CC[C@H](Nc2nccc(-n3ncc4c(Br)cccc43)n2)CC1` registered a melting point of 200 to 202 °C.

Regarding `CC(C)(C)OC(=O)Nc1ccc(Cl)c(C(F)(F)F)c1`, the melting point was 90 °C.

In the case of `O=C(O)c1ccc(Cn2cnc3ccc(Cl)c(C(=O)O)c32)cc1`, the melting point fell in the range of 291 to 292 °C.

In turn, `N#Cc1ccc(OC2CCN(c3ccncc3)C2)cc1` (stereo not drawn) had a melting point of 182 to 185 °C.

With `C[Si](C)(C)CCCNC(=O)n1cc(F)c(=O)[nH]c1=O`, the melting point is 146 to 149 °C.

As for `COc1ccc(S(=O)(=O)n2c(CCCC(=O)O)cc3cc(Cl)ccc32)cc1`, the melting point is 138 to 142 °C.

In the case of `CN(C)C(=S)Oc1ccc(C(F)(F)F)cc1C(=O)c1ccc(C#N)cc1`, the melting point came to 142 °C.

Molecule `CC(Cc1c[nH]c2ccccc12)(NC(=O)OC1C2CC3CC(C2)CC1C3)C(=O)NC1CCCCC1C(=O)O` (stereo not drawn) yielded a melting point of 230 to 234 °C.

Take `C/C(=C\c1ccc(C(=O)O)cc1)c1ccc2c(c1)OCCO2`: the melting point lay within 172 to 173 °C.

On to `C=CCCCCCCOc1ccc(CCC(NC(C)=O)(C(=O)OCC)C(=O)OCC)cc1`, for which the melting point lay within 50 to 53 °C.

`CCCc1nc2c(N)nc3ccccc3c2n1CC(C)(C)C(N)=O` returned a melting point of 219 to 221 °C.

In turn, `CN1CCN(c2cccc3c2C[C@H](NC(=O)c2ccc(N4CCOCC4)cc2)CO3)CC1` came in with a melting point of 210 to 212 °C.

Molecule `CC(C)(NCc1ccc(Oc2ccc3c(c2)OCO3)cc1)C(N)=O` showed a melting point of 123 to 124 °C.

As for `O=C(CCl)NC(C(=O)O)c1ccc2c(c1)CCS2` (stereo not drawn), the melting point lay in the range of 173 to 175 °C.

`COC(=O)c1cc([N+](=O)[O-])c(Cl)c([N+](=O)[O-])c1` displayed a melting point of 104 to 106 °C.

Take `CC(OCc1ccc2ccccc2c1)(C(N)=O)C(F)(F)F` (stereo not drawn): the melting point is 111 to 112 °C.

In turn, `CC12CCC3c4ccccc4CCC3C1CCC2NCc1ccccc1` (stereo not drawn) came in with a melting point of 71 to 74 °C.

With `NC(=O)C1CCc2c(C(=O)c3cccs3)cccc21` (stereo not drawn), the melting point was in the range of 164 to 166 °C.

`CC(=O)COc1cccc2ccc(OC(C)=O)nc12` came in with a melting point of 79 to 80 °C.

As to `CC(Cc1nc(-c2ccccc2)nc2ccccc12)C(=O)NC(CO)c1ccccc1` (stereo not drawn), the melting point worked out at 199 °C.

As to `CC1(C)COC1(Cn1cncn1)c1ccc(Cl)cc1` (stereo not drawn), the melting point lay in the range of 90 to 102 °C.

With `CCC(C(=O)C(C)C(O)C(C)CCc1c(Cl)cc(C)c(O)c1C(=O)O)C1OC(CC)(C2CCC(O)(CC)C(C)O2)CC1C` (stereo not drawn), the melting point lay within 183 to 185 °C.

In turn, `CCCn1c(=O)c2c(nc(C=Cc3cc(OC)c(OC)cc3S(=O)(=O)N3CCCCC3)n2C)n(CCC)c1=O` came in with a melting point of 266 to 268 °C.

The molecule `O=C(Nc1ccc(CCO)c(CO)c1)OCc1ccccc1` registered a melting point of 101 to 103 °C.

`O=C(O)c1ccn(-c2ccc(F)cc2)c1` displayed a melting point of 204 to 205 °C.

`CC(=O)c1cccc(C2=C(c3ccc(S(N)(=O)=O)cc3)OC(C)(C)C2=O)c1` had a melting point of 217 to 218 °C.

With `O=[N+]([O-])c1ccc2c(c1)NP(=O)(N(CCCl)CCCl)OC2` (stereo not drawn), the melting point is 138 to 142 °C.

`NC(=O)C1(Nc2ccc(I)cc2)CCCC1` had a melting point of 148 °C.

On to `CCOCc1cc2cc(Br)ccc2oc1=Nc1ccc(Cl)cc1`, for which the melting point fell in the range of 144 to 145 °C.

`COc1ccc(CC(=O)N2CCn3c(c(C(N)=O)c(Cl)c3-c3ccccc3)C2)cc1` registered a melting point of 146 to 148 °C.

The molecule `CCCCCCCCCCCCCCCCCCOc1cc(C(=O)N(CC(=O)O)CC(=O)O)cc([N+](=O)[O-])c1` displayed a melting point of 110 to 112 °C.

In turn, `COCCN(c1cccc2cc(C(=O)O)[nH]c12)S(=O)(=O)c1cccs1` displayed a melting point of 216 to 217 °C.

Molecule `COc1ccc2c(c1OC)CC(c1ccccc1)C=C2C#N` (stereo not drawn) displayed a melting point of 109 to 110 °C.

For the molecule `O=Cc1c[nH]c2c1ccc1c2[nH]c2cc(Cl)cc(Cl)c21`, the melting point was over 250 °C.

With `N#CCOc1ccc(-c2ccc(=O)n(Cc3ccc(Cl)cc3F)c2)cc1`, the melting point came to 160 °C.

Regarding `CCOC(=O)C(=CN)C(=O)c1cc(F)c(Cl)c([N+](=O)[O-])c1Cl`, the melting point is 113 to 114 °C.

`O=C(c1ccc(F)cc1)N1CCCC(c2nc(-c3ccc(F)cc3)no2)C1` (stereo not drawn): the melting point was 118 to 122 °C.

For `CCOC(=O)CNc1nc(-c2ccccc2)c2cc(Cl)ccc2n1`, the melting point worked out at 146 °C.

Consider `O=c1c(-c2cccc(C(F)(F)F)c2Cl)nn(CCCCC(F)(F)F)c2cccc(Cl)c12`, for which the melting point was in the range of 137 to 138 °C.

`CC(C)(O)C(O)(C(F)(F)F)C(F)(F)F` gave a melting point of 48 °C.

As to `COC(=O)C1(O)Cc2cc(Cl)ccc2C1=O` (single isomer, unassigned; (+)), the melting point fell in the range of 163 to 165 °C.

In turn, `O=S1(=O)CC2(CCCCC2)[C@@H](O)[C@H](c2ccccc2)c2ccccc21` (relative stereo) showed a melting point of 99 to 100 °C.

As for `NC(=O)CNC(=O)c1cccc(-c2ccc(Cl)c3cc(Cc4cc(F)cc(Cl)c4)sc23)c1`, the melting point is 204 to 205 °C.

In the case of `CCCCN(Cc1ccc(-c2ccccc2-c2nnn[nH]2)cc1)c1nc(C)ccc1C(=O)O`, the melting point lay in the range of 175 to 177 °C.

Take `COc1ccc(C(=C/C=C/C(=O)Nc2cccc3cnccc23)c2ccc(OC)cc2)cc1`: the melting point lay in the range of 197 to 199 °C.

`CNC(=O)NC(=O)C(CC1CCCC1)c1ccc(C(F)(F)F)c(F)c1` (stereo not drawn) had a melting point of 187 to 189 °C.

`O=C(Nc1cc2ccccc2cn1)c1nccnc1NCc1ccncc1` showed a melting point of 139 °C.

Molecule `Cc1nc(C(C)O)c2n1-c1ccc(Cl)cc1C(c1ccccc1Cl)=NC2` (stereo not drawn) yielded a melting point of 197 to 199 °C.

With `COc1ccc(-c2nc(CO)c[nH]2)cc1`, the melting point was 171 to 173 °C.

In the case of `COc1ccc(-c2sc3c(c2CBr)c(=O)c(C(C)=O)cn3Cc2ccccc2F)cc1`, the melting point lay within 226 to 228 °C.

In turn, `CCOC(=O)c1cn(-c2ccc(F)cc2F)c2nc(O)c(F)cc2c1=O` registered a melting point of 243 to 248 °C.

On to `COCCCc1nc(C(F)F)ccc1C(=O)C1C(=O)C2CCC(C2)C1=O` (stereo not drawn), for which the melting point was 45 to 46 °C.

With `N#Cc1cccc(Oc2ncccc2C(=O)NCc2ccc(S(N)(=O)=O)cc2)c1`, the melting point was 179 to 180 °C.

For `CCOC(=O)CCc1ccc(OCc2ccc(OCc3nc(-c4ccccc4)oc3C)cc2)cc1`, the melting point was 105 to 106 °C.

On to `CCc1nc(-c2cccc(C)c2)c(-c2ccnc(CC#N)c2)s1`, for which the melting point lay in the range of 68 to 69 °C.

In the case of `CN(Cc1ccc(F)cc1)C1CCN(c2ccc(C(=O)O)cc2)CC1`, the melting point fell in the range of 256 to 258 °C.

Take `O=C(O)c1cccc(OC(F)(F)C(F)Cl)c1` (stereo not drawn): the melting point lay in the range of 79 to 85 °C.

What is called melting point is the temperature of the solid-liquid transition.
